Experiments:
Format in all cases: cell-based, murine
[1] = biological target: Ba/F3 EGFR L858R/T790M/C797S mutants (Homo sapiens, UniProt P00533, T790M/C797S/L858R, cells depend on it); assay: CellTiter-Glo cell viability, Ba/F3 EGFR L858R/T790M/C797S cells; conditions: 72 hours, read-out: Ba/F3 EGFR mutant cell (IC50, nM) L/T/C
Outline: (§1)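 IC50s come from CellTiter-Glo ATP luminescence after 72 h of compound exposure (0, 0.3 up to 2000 nM, 10 concentrations). Ba/F3 lines carried wild-type or mutant EGFR and were plated at 2500 cells/well one day before treatment.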

[2] = biological target: Ba/F3 EGFR Del19/T790M mutants (Homo sapiens, UniProt P00533, T790M, cells depend on it, form not given); assay: CellTiter-Glo cell viability, Ba/F3 EGFR Del19/T790M cells; conditions: 72 hours, read-out: Ba/F3 EGFR mutant cell (IC50, nM) D/T
Outline: as §1

[3] = biological target: Ba/F3 EGFR Del19/T790M/C797S mutants (Homo sapiens, UniProt P00533, T790M/C797S, cells depend on it, form not given); assay: CellTiter-Glo cell viability, Ba/F3 EGFR Del19/T790M/C797S cells; conditions: 72 hours, read-out: Ba/F3 EGFR mutant cell (IC50, nM) D/T/C
Outline: as §1

[4] = biological target: Ba/F3 EGFR Wild-type (Homo sapiens, UniProt P00533); assay: CellTiter-Glo cell viability, Ba/F3 EGFR wild-type cells; conditions: 72 hours, read-out: Ba/F3 EGFR mutant cell (IC50, nM) WT
Outline: as §1

[5] = biological target: Ba/F3 EGFR L858R/C797S mutants (Homo sapiens, UniProt P00533, C797S/L858R, cells depend on it); assay: CellTiter-Glo cell viability, Ba/F3 EGFR L858R/C797S cells; conditions: 72 hours, read-out: Ba/F3 EGFR mutant cell (IC50, nM) L/C
Outline: as §1

[6] = biological target: Ba/F3 EGFR Del19/C797S mutants (Homo sapiens, UniProt P00533, C797S, cells depend on it, form not given); assay: CellTiter-Glo cell viability, Ba/F3 EGFR Del19/C797S cells; conditions: 72 hours, read-out: Ba/F3 EGFR mutant cell (IC50, nM) D/C
Outline: as §1

Chain of Ba/F3 EGFR Del19/C797S mutants (P00533 with tags, fused parts or gaps DEL746-750/C797S, form open): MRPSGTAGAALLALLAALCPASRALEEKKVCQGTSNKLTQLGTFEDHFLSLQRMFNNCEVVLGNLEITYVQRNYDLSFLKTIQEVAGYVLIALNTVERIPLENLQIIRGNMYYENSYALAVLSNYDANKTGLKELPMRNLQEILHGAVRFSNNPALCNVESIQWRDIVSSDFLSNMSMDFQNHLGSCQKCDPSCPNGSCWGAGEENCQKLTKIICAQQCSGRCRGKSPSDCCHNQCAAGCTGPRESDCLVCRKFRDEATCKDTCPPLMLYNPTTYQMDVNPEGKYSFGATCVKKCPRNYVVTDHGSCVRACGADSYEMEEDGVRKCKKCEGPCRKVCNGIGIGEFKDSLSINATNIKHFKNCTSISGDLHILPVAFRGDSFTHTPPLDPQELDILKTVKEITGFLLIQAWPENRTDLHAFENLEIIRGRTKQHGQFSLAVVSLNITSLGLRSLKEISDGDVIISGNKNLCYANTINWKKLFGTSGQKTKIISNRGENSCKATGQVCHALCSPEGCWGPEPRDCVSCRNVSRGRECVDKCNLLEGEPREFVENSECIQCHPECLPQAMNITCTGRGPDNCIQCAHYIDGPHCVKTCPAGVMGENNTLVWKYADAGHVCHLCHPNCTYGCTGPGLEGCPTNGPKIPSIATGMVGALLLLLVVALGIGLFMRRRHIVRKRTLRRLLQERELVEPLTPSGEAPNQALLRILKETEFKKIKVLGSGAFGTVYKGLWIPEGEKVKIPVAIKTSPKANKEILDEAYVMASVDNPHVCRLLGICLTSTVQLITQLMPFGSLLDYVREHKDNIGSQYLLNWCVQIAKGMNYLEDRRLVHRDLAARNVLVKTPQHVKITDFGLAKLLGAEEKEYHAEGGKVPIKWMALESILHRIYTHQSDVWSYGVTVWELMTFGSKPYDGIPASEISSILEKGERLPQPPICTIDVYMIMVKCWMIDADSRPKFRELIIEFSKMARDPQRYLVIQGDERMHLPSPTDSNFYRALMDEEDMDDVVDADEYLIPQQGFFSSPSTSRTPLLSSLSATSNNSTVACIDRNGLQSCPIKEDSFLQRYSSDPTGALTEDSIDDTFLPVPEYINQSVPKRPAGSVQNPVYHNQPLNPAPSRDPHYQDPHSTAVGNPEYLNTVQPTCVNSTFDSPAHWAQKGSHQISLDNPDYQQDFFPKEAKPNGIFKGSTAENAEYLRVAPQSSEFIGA
Chain of Ba/F3 EGFR L858R/C797S mutants (P00533 whole entry C797S/L858R): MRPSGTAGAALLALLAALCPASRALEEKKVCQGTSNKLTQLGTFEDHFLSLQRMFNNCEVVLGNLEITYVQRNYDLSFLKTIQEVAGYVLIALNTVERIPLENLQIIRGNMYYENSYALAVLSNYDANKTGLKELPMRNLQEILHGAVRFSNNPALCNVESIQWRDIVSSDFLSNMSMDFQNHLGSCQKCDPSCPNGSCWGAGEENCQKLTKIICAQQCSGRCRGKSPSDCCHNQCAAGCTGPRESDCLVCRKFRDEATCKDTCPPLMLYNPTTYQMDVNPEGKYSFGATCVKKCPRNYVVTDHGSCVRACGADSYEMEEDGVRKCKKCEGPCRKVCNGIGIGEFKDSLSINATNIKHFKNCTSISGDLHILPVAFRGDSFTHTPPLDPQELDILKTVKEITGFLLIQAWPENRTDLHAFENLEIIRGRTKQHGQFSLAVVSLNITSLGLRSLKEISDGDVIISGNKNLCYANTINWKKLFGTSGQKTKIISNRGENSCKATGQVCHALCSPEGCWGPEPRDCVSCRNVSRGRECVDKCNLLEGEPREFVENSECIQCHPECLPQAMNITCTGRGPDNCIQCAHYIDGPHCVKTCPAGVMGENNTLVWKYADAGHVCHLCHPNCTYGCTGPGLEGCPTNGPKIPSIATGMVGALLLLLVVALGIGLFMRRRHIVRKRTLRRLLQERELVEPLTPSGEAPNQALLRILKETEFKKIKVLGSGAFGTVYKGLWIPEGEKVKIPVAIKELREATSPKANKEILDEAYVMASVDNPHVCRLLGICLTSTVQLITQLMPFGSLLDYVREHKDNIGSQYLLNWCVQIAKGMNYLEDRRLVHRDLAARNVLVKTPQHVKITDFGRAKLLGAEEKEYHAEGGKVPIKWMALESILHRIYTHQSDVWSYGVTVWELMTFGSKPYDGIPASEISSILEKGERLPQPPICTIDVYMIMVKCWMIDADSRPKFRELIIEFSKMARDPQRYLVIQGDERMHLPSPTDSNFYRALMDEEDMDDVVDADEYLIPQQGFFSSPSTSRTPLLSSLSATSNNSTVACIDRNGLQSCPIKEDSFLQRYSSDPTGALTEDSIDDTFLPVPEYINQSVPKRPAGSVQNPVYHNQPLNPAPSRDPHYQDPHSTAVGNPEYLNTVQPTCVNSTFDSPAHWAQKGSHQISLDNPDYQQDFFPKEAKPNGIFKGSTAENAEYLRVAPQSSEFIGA
Chain of Ba/F3 EGFR Del19/T790M/C797S mutants (P00533 with tags, fused parts or gaps DEL746-750/T790M/C797S, form open): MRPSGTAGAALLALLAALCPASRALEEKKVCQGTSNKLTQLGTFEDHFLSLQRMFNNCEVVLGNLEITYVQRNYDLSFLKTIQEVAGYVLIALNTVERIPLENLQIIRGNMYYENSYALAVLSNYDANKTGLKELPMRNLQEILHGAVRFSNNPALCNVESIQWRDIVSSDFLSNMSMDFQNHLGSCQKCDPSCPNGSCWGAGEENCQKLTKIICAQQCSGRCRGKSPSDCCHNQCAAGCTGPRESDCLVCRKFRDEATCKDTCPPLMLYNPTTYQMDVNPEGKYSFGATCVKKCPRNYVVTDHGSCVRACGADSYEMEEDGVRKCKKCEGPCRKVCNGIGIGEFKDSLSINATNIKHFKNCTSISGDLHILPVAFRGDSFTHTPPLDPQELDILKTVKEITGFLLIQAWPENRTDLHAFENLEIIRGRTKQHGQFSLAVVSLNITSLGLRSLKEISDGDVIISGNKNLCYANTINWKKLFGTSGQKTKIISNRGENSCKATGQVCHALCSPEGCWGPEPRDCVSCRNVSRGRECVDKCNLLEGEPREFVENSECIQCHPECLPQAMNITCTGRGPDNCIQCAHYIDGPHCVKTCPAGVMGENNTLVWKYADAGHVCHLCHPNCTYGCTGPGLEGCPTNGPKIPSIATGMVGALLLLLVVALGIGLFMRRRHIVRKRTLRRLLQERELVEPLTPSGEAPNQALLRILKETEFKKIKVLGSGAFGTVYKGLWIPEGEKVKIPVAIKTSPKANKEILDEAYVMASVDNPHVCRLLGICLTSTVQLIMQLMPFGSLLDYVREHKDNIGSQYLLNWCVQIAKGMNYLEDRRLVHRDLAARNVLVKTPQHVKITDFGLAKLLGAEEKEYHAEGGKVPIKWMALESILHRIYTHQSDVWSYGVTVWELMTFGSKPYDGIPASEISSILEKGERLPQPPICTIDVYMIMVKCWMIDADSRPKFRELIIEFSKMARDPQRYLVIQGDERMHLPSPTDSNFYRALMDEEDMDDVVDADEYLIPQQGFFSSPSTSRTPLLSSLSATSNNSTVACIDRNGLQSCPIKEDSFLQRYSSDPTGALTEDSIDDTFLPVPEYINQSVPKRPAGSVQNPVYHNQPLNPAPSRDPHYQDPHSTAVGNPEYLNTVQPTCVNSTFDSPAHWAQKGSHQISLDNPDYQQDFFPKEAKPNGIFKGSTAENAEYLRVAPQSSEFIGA
Chain of Ba/F3 EGFR L858R/T790M/C797S mutants (P00533 whole entry T790M/C797S/L858R): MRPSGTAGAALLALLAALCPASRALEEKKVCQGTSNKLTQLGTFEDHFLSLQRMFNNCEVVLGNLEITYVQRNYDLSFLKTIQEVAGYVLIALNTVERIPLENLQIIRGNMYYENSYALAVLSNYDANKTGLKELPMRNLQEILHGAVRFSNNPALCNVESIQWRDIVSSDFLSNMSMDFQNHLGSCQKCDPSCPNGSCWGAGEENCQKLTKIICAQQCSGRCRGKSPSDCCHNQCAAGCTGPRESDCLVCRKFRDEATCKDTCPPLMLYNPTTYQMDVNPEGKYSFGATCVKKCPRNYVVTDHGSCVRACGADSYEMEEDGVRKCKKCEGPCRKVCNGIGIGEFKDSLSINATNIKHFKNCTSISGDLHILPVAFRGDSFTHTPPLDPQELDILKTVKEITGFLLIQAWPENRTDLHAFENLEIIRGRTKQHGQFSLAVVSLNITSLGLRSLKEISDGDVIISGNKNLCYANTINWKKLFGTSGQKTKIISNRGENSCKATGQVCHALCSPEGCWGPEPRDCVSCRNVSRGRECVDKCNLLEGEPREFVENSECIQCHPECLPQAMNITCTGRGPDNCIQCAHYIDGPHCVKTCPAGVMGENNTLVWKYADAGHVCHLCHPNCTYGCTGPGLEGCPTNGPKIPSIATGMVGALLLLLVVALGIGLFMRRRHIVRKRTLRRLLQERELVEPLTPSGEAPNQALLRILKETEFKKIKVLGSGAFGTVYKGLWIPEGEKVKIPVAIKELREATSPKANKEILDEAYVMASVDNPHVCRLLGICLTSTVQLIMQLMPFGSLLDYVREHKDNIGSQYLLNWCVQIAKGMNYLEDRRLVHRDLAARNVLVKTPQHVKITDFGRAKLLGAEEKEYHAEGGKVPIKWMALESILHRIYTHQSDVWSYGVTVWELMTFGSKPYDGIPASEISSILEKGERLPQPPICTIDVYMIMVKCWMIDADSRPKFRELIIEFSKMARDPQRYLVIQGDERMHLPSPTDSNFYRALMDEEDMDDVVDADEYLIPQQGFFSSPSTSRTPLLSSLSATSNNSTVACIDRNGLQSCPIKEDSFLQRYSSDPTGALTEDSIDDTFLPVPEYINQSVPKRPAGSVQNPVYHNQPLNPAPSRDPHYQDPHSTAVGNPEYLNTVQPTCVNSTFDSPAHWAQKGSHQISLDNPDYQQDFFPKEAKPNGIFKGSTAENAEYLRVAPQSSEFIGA

SMILES	GI50 [1] [nM]	GI50 [2] [nM]	GI50 [3] [nM]	GI50 [4] [nM]	GI50 [5] [nM]	GI50 [6] [nM]
CCc1cc(Nc2ncc(Br)c(Nc3cccc(OC)c3N(C)S(C)(=O)=O)n2)c(OC)cc1N1CCC(N2CCN(C)CC2)CC1 [Example C7, N-(2-((5-bromo-2-((5-ethyl-2-methoxy-4-(4-(4-methylpiperazin-1-yl)piperidin-1-yl)phenyl)amino)pyrimidin-4-yl)amino)-6-methoxyphenyl)-N-methylmethane sulfonamide]	24	6	10	534	52	10
CCc1cc(Nc2ncc(Cl)c(Nc3ccc4nccnc4c3NS(C)(=O)=O)n2)c(OC)cc1N1CCC(N2CC3CCC2CN3C)CC1 (stereo not drawn) [Example A45, N-(6-((5-chloro-2-((5-ethyl-2-methoxy-4-(4-(5-methyl-2,5-diazabicyclo[2.2.2]octan-2-yl)piperidin-1-yl)phenyl)amino)pyrimidin-4-yl)amino)quinoxalin-5-yl)methanesulfonamide]	71	9	7	734	103	10
CCCc1cc(Nc2ncc(Cl)c(Nc3ccc4nccnc4c3NS(C)(=O)=O)n2)c(OC)cc1N1CCC(N(C)C)CC1 [Example B12, N-(6-((5-chloro-2-((4-(4-(dimethylamino)piperidin-1-yl)-2-methoxy-5-propylphenyl)amino)pyrimidin-4-yl)amino)quinoxalin-5-yl)methanesulfonamide]	36	19	104	431	87	29
COc1cc(N2CCC(N3CCCC3)CC2)c(C)cc1Nc1ncc(Cl)c(Nc2ccc3nccnc3c2NS(C)(=O)=O)n1 [Example A30, N-(6-((5-chloro-2-((2-methoxy-5-methyl-4-(4-(pyrrolidin-1-yl)piperidin-1-yl)phenyl)amino)pyrimidin-4-yl)amino)quinoxalin-5-yl)methanesulfonamide]	23	31	100	266	83	28
CN[C@@H]1CN(c2ccc(Nc3ncc(Cl)c(Nc4ccc5nccnc5c4NS(C)(=O)=O)n3)c(OC)c2)C[C@H]1F [Example D5]	1320	466	699	1720	680	595
COc1cc(N2CCN([C@@H]3CCN(C)C[C@@H]3F)CC2)ccc1Nc1ncc(Cl)c(Nc2ccc3nccnc3c2NS(C)(=O)=O)n1 [Example A36, N-(6-((5-chloro-2-((4-(4-((3S,4R)-3-fluoro-1-methylpiperidin-4-yl)piperazin-1-yl)-2-methoxyphenyl)amino)pyrimidin-4-yl)amino)quinoxalin-5-yl)methane sulfonamide]	485	73	241	657	267	111
COc1cc(N2CCC(N(C)C)CC2)c(C)cc1Nc1ncc(Br)c(Nc2ccc3nccnc3c2N(C)S(C)(=O)=O)n1 [Example B7, N-(6-((5-bromo-2-((4-(4-(dimethylamino)piperidin-1-yl)-2-methoxy-5-methylphenyl)amino)pyrimidin-4-yl)amino)quinoxalin-5-yl)-N-methylmethanesulfonamide]	33	21	8	595	98	34
COc1cc(N2CCOCC2)c(C)cc1Nc1ncc(Br)c(Nc2ccc3nccnc3c2S(C)(=O)=O)n1 [Example D1, 5-bromo-N2-(2-methoxy-5-methyl-4-morpholinophenyl)-N4-(5-(methylsulfonyl)quinoxalin-6-yl)pyrimidine-2,4-diamine]	536	477	959	> 2000	1120	1010
